Test results from patent publication EP2362225 (dated 2011).
“Also recorded” adds a separate entry of the source.

How the values were obtained:
LcL 20S proteasomes = assay: 3 µg LcL 20S proteasomes in 100 µl buffer; gp10040-52 and its heavy analogue digested together; settings: human, up to 36 hours
[1] = tested on: T2.27 20S proteasomes (immunoproteasomes); assay: 20S proteasomes purified from T2.27 cells in Hepes buffer; settings: human T2 cells transfected with murine LMP2 and LMP7, 37°C, up to 48 hours
[2] = tested on: T2 20S proteasomes (standard proteasome); assay: 20S proteasomes purified from T2 cells in Hepes buffer; settings: human, 37°C, up to 48 hours
[3] = tested on: 20S proteasomes of T2 cells (standard proteasome); assay: T2 20S proteasomes (standard proteasome) in Hepes buffer; settings: human, 37°C, up to 48 hours
[4] = tested on: 20S proteasomes of Lymphoblastoid cell Lines (LcL); assay: LcL 20S proteasomes in Hepes buffer (Hepes 20 mM, KCI 1 mM, MgCl 0.5 mM, DTT 1 mM, NaN3 1 mM, pH 7.3); settings: human, 37°C, up to 48 hours
[5] = tested on: 20S proteasomes of T2.27 cells (immunoproteasomes); assay: T2.27 20S proteasomes (immunoproteasomes) in Hepes buffer; settings: human T2 cells transfected with murine LMP2 and LMP7 subunits, 37°C, up to 48 hours

Substance: RTK^+6AWNRQL^+1YPEW
- fragment found (LcL 20S proteasomes): gp10040-42/47-52-δ; also recorded: gp10047-52/40-42-δ

Substance: RTKAWNRQLYPEW
- fragment found [1]: gp10040-42/47-52 [RTK][QLYPEW]; also recorded: gp10047-52/40-42 [QLYPEW][RTK]
- fragment found [2]: gp10047-52/40-42 [QLYPEW][RTK]
- fragment found (proteasome): gp10040-42/47-52 [RTK][QLYPEW]
- fragment found [3]: [RTK][QLYPEW]; also recorded: [QLYPEW][RTK]
- fragment found (LcL 20S proteasomes): gp10040-042/47-52-α; also recorded: gp10047-52/40-42-α
- fragment found [4]: gp10040-42/47-52 [RTK][QLYPEW]; also recorded: gp10047-52/40-42 [QLYPEW][RTK]
- fragment found [5]: [RTK][QLYPEW]; also recorded: [QLYPEW][RTK]

Substance: VSRQLRTKAWNRQLYPEWTEAQR
- fragment found [3]: [VSRQL][VSRQL] (gp10035-39/35-39); also recorded: [QLYPEWTEA][VSRQL] (gp10047-55/35-39)
- fragment found [5]: [VSRQL][VSRQL] (gp10035-39/35-39); also recorded: [QLYPEWTEA][VSRQL] (gp10047-55/35-39)
